In patent US20140057915A1, “KINASE INHIBITORS” (TOPIVERT PHARMA LIMITED, priority 2012, published 2014):

Tests used:
Syk = Syk (Homo sapiens, UniProt P43405); test: Enzyme binding assay (Kinomescan); settings: read-out: % Inhibition of kinase binding at 500 nM, Syk
Protocol: (§1) Enzyme Binding Assays (Kinomescan)
(§2) These assays were conducted by DiscoverX (formerly Ambit; San Diego, Calif.). The percentage inhibition produced by incubation with a test compound is calculated relative to the non-inhibited control.

[1] = tested on: ICAM-1 expression, BEAS2B cells; test: Poly I:C-induced ICAM-1 expression in BEAS2B cells; type: cell-based; settings: Homo sapiens, BEAS-2B; read-out: Poly IC induced ICAM1 in BEAS2B, IC50
In short: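 BEAS2B human bronchial epithelial cells pre-incubated 2 h with compound, then transfected with poly I:C (1 μg/mL) plus Oligofectamine. After 18 h, cell-surface ICAM-1 read by cell-based ELISA (A450–655), normalised to Crystal Violet cell number (A595); inhibition calculated against vehicle control at each concentration.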

[2] = tested on: TNFα release, d-U937 cells; test: LPS-induced TNFα release in d-U937 cells; type: cell-based; settings: Homo sapiens, dU937; relative to 10 μg/mL BIRB796; Table 4c1; read-out: LPS Induced Release of Cytokine in d-U937 Cells, TNFα REC50
In short: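 U937 cells differentiated with PMA (100 ng/mL, 48–72 hr), pre-treated with compound for 2 hr, then stimulated with E. coli LPS (0.1 μg/mL) for 4 hr. Supernatant cytokine measured by sandwich ELISA; inhibition versus vehicle control, REC50 from concentration-response curve.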

GSK3α = GSK3α (Homo sapiens, UniProt P49840); test: Enzyme binding assay (Kinomescan); settings: read-out: % Inhibition of kinase binding at 500 nM, GSK3α
Protocol: as §2

d-U937 cells = test: Cell viability: MTT assay; type: cell-based, human; settings: 1 μg/mL
In short: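 Differentiated U937 cells exposed to compound at 1 or 10 μg/mL, either 4 h in 5% FCS or 24 h in 10% FCS RPMI1640. MTT then added for 1 h, formazan dissolved in DMSO and read at 550 nm. Viability loss given as % versus 0.5% DMSO vehicle; apparent gains appear negative.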

B-Raf = B-Raf (Homo sapiens, UniProt P15056); test: Enzyme binding assay (Kinomescan); settings: read-out: % Inhibition of kinase binding at 500 nM, B-Raf
Protocol: as §1
(§3) The kinase enzyme binding activities of compounds disclosed herein were determined using a proprietary assay which measures active site-directed competition binding to an immobilized ligand (Fabian, M. A. et al., Nature Biotechnol., 2005, 23:329-336). These assays were conducted by DiscoverX (formerly Ambit; San Diego, Calif.). The percentage inhibition produced by incubation with a test compound is calculated relative to the non-inhibited control.

p38 MAPKα = p38 MAPKα (Homo sapiens, UniProt Q16539); test: Enzyme binding assay (Kinomescan); settings: read-out: % Inhibition of kinase binding at 500 nM, p38 MAPKα
Protocol: as §1, §3

p38 MAPKα, sequence (Q16539 whole entry): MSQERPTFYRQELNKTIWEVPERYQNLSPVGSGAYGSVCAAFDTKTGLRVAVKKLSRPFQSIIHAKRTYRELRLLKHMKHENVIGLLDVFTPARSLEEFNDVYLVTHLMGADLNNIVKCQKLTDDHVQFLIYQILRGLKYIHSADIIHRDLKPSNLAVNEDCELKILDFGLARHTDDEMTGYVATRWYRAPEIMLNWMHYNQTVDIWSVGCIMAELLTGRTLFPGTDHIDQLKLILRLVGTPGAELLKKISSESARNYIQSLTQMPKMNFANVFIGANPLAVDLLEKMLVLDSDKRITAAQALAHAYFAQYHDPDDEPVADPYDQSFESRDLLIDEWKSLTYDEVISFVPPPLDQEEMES
GSK3α, sequence (P49840 whole entry): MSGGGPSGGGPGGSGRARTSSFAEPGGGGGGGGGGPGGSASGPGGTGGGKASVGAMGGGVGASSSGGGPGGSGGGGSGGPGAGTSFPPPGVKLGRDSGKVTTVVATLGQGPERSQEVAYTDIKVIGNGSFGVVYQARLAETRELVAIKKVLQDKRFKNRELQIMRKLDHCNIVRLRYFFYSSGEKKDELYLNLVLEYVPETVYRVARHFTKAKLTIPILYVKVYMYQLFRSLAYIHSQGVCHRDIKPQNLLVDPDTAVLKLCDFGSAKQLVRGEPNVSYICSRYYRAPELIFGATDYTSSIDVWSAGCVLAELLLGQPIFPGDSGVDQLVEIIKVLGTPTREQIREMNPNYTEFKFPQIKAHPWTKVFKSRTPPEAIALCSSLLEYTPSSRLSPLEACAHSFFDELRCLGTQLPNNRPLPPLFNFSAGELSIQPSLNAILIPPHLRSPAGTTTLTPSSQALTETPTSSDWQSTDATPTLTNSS
B-Raf, sequence (P15056 whole entry): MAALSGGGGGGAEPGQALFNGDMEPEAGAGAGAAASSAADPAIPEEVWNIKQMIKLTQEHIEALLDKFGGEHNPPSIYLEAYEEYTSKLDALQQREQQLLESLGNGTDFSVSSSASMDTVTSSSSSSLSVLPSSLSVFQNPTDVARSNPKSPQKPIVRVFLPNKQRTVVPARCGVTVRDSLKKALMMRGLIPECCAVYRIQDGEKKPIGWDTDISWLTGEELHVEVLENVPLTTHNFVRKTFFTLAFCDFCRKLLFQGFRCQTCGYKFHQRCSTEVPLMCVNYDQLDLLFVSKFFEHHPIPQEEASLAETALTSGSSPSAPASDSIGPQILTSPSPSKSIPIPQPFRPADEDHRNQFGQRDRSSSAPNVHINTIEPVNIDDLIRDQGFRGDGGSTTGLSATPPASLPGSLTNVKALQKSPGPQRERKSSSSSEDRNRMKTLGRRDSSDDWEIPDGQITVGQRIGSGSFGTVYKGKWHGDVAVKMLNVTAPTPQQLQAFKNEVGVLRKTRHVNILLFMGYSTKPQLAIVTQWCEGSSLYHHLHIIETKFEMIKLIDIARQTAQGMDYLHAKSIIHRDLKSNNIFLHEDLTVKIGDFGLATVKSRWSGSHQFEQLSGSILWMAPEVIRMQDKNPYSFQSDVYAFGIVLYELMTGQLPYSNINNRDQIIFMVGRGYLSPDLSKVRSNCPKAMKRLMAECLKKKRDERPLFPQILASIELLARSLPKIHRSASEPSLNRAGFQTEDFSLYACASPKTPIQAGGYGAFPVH

inhibition at 0.5 µM (Syk): 95%
EC50 [2]: 0.13 nM
inhibition at 0.5 µM (GSK3α): 84%
inhibition at 0.5 µM (B-Raf): 70%
inhibition at 0.5 µM (p38 MAPKα): 100%
SMILES: COCC(=O)Nc1cc(Oc2ccc(NC(=O)Nc3cc(C(C)(C)C)nn3-c3ccc(C)cc3)c3ccccc23)ccn1 [Reference Compound, N-(4-(4-(3-(3-tert-butyl-1-p-tolyl-1H-pyrazol-5-yl)ureido)naphthalen-1-yloxy)pyridin-2-yl)-2-methoxyacetamide, reference compound]
IC50 [1]: 2.1 nM
Cell viability at time point in d-U937 cells, 4 h (d-U937 cells; 4 h): −ve (−ve and +ve indicate that the value is below and above respectively, the no significant effect threshold, defined as 30% inhibition at 1 μg/mL at the time point indicated)
Cell viability at time point in d-U937 cells, 24 h (d-U937 cells; 24 h): +ve (−ve and +ve indicate that the value is below and above respectively, the no significant effect threshold, defined as 30% inhibition at 1 μg/mL at the time point indicated)
